Measurements as given in EP0328029A2, “Cholesterol-esterase colour substrate” (BOEHRINGER MANNHEIM GMBH, priority 1988, dated 1989).

Key:
[1] = test system: Cholesterinesterase (Cholesterinesterhydrolase EC 3.1.1.13); test: Cholesterol esterase colour test according to Example 2 (photometric release of resorufin); format: biochemical; details: λ = 571 nm, 25°C, 0,1 M Kalium-Phosphat-Puffer pH 6,8
Procedure: 2 mg Cholesterin-glutarsäureresorufinester werden in 0,5 ml Dioxan und 0,5 ml Thesit® gelöst.
Zur Messung werden 850 µl 0,1 M Kalium-Phosphat-Puffer pH 6,8 und 50 µl der oben beschriebenen Substratlösung in einer Küvette gut durchgemischt. Nach Zugabe von 100 µl Probe (Enzymlösung) wird ΔE/min photometrisch bei λ = 571 nm bestimmt (Temperatur = 25°C).
Bei Auswertung über einen Standard bekannter Cholesterinesteraseaktivität wird die Cholesterinesteraseaktivität der Probe wie folgt berechnet [formula] Eine Berechnung der Cholesterinesteraseaktivität der Probe ist auch nach folgender Formel möglich: [formula] Vges : Gesamtvolumen des Testansatzes [cm³] VProbe : Volumen der Probe [cm³] ε : Extinktionskoeefizient des Chromogens bei 571 nm d : Schichtdicke der Küvette [cm] ΔE/min : Extinktionsänderung pro Minute bei 571 nm
Bei den genannten Reaktionsbedingungen beträgt der Extinktionskoeffizient ε = 60,00·cm² ·µmol⁻¹.
(§1) Zum Vergleich wurde der Cholesterinesterase-Test mit Cholesterinoleat als Substrat durchgeführt (Bergmeyer, Methods of Enzymatic Analysis, 3th.Ed., Vol.II, S. 168) und mit dem Farbtest gemäß Beispiel 2 verglichen und der Korrelationskoeffizient ermittelt. Die Ergebnisse zeigen Tabelle I und Figur 1. TABELLE I

[2] = test system: Cholesterinesterase (Cholesterinesterhydrolase EC 3.1.1.13); test: Cholesterol esterase test with cholesterol oleate as substrate (Bergmeyer UV method, comparison); format: biochemical
Description: Bekannt ist die photometrische Bestimmung im UV. Freigesetztes Cholesterin wird mittels Cholesterinoxidase zu Cholestenon oxidiert, das anhand der Absorptionszunahme bei λ = 240 nm gemessen werden kann (Bergmeyer, Methods of Enzymatic Analysis, 3th.Ed., Vol.II, S.168). Alternativ wird das bei dieser Oxidation gebildete Wasserstoff peroxid durch eine Farb-Reaktion bestimmt (Stähler, Med.Lab. 30, 29 (77)). Diese Methoden sind umständlich und ebenfalls störanfällig.
as §1

ΔE/min ([2]; Konz. 1,0 mg/ml)	ΔE/min ([2]; Konz. 1,3 mg/ml)	ΔE/min ([2]; Konz. 2,0 mg/ml)	ΔE/min ([2]; Konz. 5,0 mg/ml)	ΔE/min ([2]; Konz. 6,6 mg/ml)	ΔE/min ([2]; Konz. 10,0 mg/ml)	Structure (SMILES)	ΔE/min ([1]; Konz. 1,0 mg/ml)	ΔE/min ([1]; Konz. 1,3 mg/ml)	ΔE/min ([1]; Konz. 2,0 mg/ml)	ΔE/min ([1]; Konz. 5,0 mg/ml)	ΔE/min ([1]; Konz. 10,0 mg/ml)
						CC(C)CCC[C@@H](C)[C@H]1CC[C@H]2[C@@H]3CC=C4C[C@@H](OC(=O)CCCC(=O)Oc5ccc6nc7ccc(=O)cc-7oc6c5)CC[C@]4(C)[C@H]3CC[C@]12C [Cholesterin-Glutarsäure-Resorufinester, Cholesterin-glutarsäure-resorufinester]	0,009	0,013	0,015	0,033	0,071
0,007	0,011	0,015	0,036	0,045	0,072	CCCCCCCC/C=C\CCCCCCCC(=O)O[C@H]1CC[C@@]2(C)C(=CC[C@H]3[C@@H]4CC[C@H]([C@H](C)CCCC(C)C)[C@@]4(C)CC[C@@H]32)C1 [Cholesterin-Oleat, Cholesterinoleat]					
